Assay results as given in ChEMBL document CHEMBL1201862, “PubChem BioAssay data set” (2004).
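Protocol summary: plate cells (96-well), add compound at 5 concentrations, incubate 48 h, interpolate endpoints linearly. GI50 = concentration required for 50% inhibition of growth.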 Active and inactive are the calls of the source. Rule as the data show it: active = GI50 up to about 1.1 µM and inactive = higher.

Legend:
Assay in all cases: DTP human tumour cell line panel, 48 h
786-0 = system: 786-0
A498 = system: A498
A549 = system: A549
ACHN = system: ACHN
CAKI-1 = system: CAKI-1
CCRF-CEM = system: CCRF-CEM
COLO 205 = system: COLO 205
DLD-1 = system: DLD-1
DMS-114 = system: DMS-114
DMS-273 = system: DMS-273
EKVX = system: EKVX
HCC 2998 = system: HCC 2998
HCT-116 = system: HCT-116
HCT-15 = system: HCT-15
HL-60 = system: HL-60
HOP-18 = system: HOP-18
HOP-62 = system: HOP-62
HT-29 = system: HT-29
IGROV-1 = system: IGROV-1
K562 = system: K562
KM-20L2 = system: KM-20L2
KM12 = system: KM12
LOX IMVI = system: LOX IMVI
LXFL 529 = system: LXFL 529
M14 = system: M14
M19-MEL = system: M19-MEL
MOLT-4 = system: MOLT-4
Malme-3M = system: Malme-3M
NCI-H226 = system: NCI-H226
NCI-H23 = system: NCI-H23
NCI-H460 = system: NCI-H460
NCI-H522 = system: NCI-H522
OVCAR-3 = system: OVCAR-3
OVCAR-4 = system: OVCAR-4
OVCAR-5 = system: OVCAR-5
OVCAR-8 = system: OVCAR-8
RXF 393 = system: RXF 393
RXF 631 = system: RXF 631
SF-268 = system: SF-268
SF-295 = system: SF-295
SF-539 = system: SF-539
SK-MEL-28 = system: SK-MEL-28
SK-MEL-2 = system: SK-MEL-2
SK-MEL-5 = system: SK-MEL-5
SK-OV-3 = system: SK-OV-3
SN12C = system: SN12C
SNB-19 = system: SNB-19
SNB-75 = system: SNB-75
SNB-78 = system: SNB-78
SR = system: SR
SW-620 = system: SW-620
TK-10 = system: TK-10
U-251 = system: U-251
UACC-257 = system: UACC-257
UACC-62 = system: UACC-62
UO-31 = system: UO-31
XF498 = system: XF498

## CC1=C(C(=O)Nc2ccc(C)cc2)C(c2cccc([N+](=O)[O-])c2)C(C(=O)Nc2ccc(C)cc2)=C(C)N1
786-0
  GI50: 26.2 µM (inactive)
A498
  GI50: 16.4 µM (inactive)
A549
  GI50: 26.2 µM (inactive)
ACHN
  GI50: 18.8 µM (inactive)
CAKI-1
  GI50: 27.9 µM (inactive)
CCRF-CEM
  GI50: 7.89 µM (inactive)
COLO 205
  GI50: 14.1 µM (inactive)
DLD-1
  GI50: 31.6 µM (inactive)
DMS-114
  GI50: 22.5 µM (inactive)
DMS-273
  GI50: 28.6 µM (inactive)
EKVX
  GI50: 17.1 µM (inactive)
HCC 2998
  GI50: 30.6 µM (inactive)
HCT-116
  GI50: 35.6 µM (inactive)
HCT-15
  GI50: 26.2 µM
HL-60
  GI50: 16.1 µM (inactive)
HOP-18
  GI50: 14.1 µM (inactive)
HOP-62
  GI50: 29.5 µM (inactive)
HT-29
  GI50: 17.2 µM (inactive)
IGROV-1
  GI50: 20.9 µM (inactive)
K562
  GI50: 16.9 µM (inactive)
KM-20L2
  GI50: 19.4 µM (inactive)
KM12
  GI50: 15.6 µM (inactive)
LOX IMVI
  GI50: 16.2 µM (inactive)
LXFL 529
  GI50: 27.7 µM (inactive)
M14
  GI50: 16.9 µM (inactive)
M19-MEL
  GI50: 20.8 µM (inactive)
MOLT-4
  GI50: 5.55 µM (inactive)
Malme-3M
  GI50: 28.2 µM (inactive)
NCI-H226
  GI50: 69.5 µM (inactive)
NCI-H23
  GI50: 25.2 µM (inactive)
NCI-H460
  GI50: 19.7 µM (inactive)
NCI-H522
  GI50: 27.4 µM (inactive)
OVCAR-3
  GI50: 20 µM (inactive)
OVCAR-4
  GI50: 12.2 µM (inactive)
OVCAR-5
  GI50: 53.2 µM (inactive)
OVCAR-8
  GI50: 40 µM (inactive)
RXF 393
  GI50: 22.8 µM (inactive)
RXF 631
  GI50: 17.2 µM (inactive)
SF-268
  GI50: 16.1 µM (inactive)
SF-295
  GI50: 28.1 µM (inactive)
SF-539
  GI50: 19 µM (inactive)
SK-MEL-28
  GI50: 28.8 µM (inactive)
SK-MEL-2
  GI50: 20.8 µM (inactive)
SK-MEL-5
  GI50: 20.2 µM (inactive)
SK-OV-3
  GI50: 55.2 µM (inactive)
SN12C
  GI50: 20.9 µM (inactive)
SNB-19
  GI50: 28.1 µM (inactive)
SNB-75
  GI50: 16.7 µM (inactive)
SNB-78
  GI50: 27.4 µM (inactive)
SR
  GI50: 21.2 µM (inactive)
SW-620
  GI50: 35.2 µM (inactive)
TK-10
  GI50: 31.6 µM (inactive)
U-251
  GI50: 20.7 µM (inactive)
UACC-257
  GI50: 21.2 µM (inactive)
UACC-62
  GI50: 13.3 µM (inactive)
UO-31
  GI50: 22 µM (inactive)
XF498
  GI50: 17.8 µM (inactive)
